Assay results: the supplement of paper PMC11451515

Tested on: NOMO1
Assay: cell viability relative to DMSO control; higher = less cytotoxic
Details: 48 h
Summary of the method: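 Viability is a per-plate percentage relative to DMSO wells, with cell-free wells as background. CellTiter-Glo One luminescence was read after 48 h at 37°C on 1536-well plates (5 μl) of NOMO1 or SEM (500 cells/well) or P12-Ichikawa (1000 cells/well) leukemia cells. The cells had been adapted for at least four passages in each medium and pin-dosed with library compounds in DMSO from 47 μM to 0.79 nM in 11 threefold steps.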

[1] = HPLM + 10% dialyzed FBS, 0.000781 µM
[2] = HPLM + 10% dialyzed FBS, 0.00234 µM
[3] = HPLM + 10% dialyzed FBS, 0.00702 µM
[4] = HPLM + 10% dialyzed FBS, 0.0211 µM
[5] = HPLM + 10% dialyzed FBS, 0.0632 µM
[6] = HPLM + 10% dialyzed FBS, 0.19 µM
[7] = HPLM + 10% dialyzed FBS, 0.569 µM
[8] = HPLM + 10% dialyzed FBS, 1.71 µM
[9] = HPLM + 10% dialyzed FBS, 5.12 µM
[10] = HPLM + 10% dialyzed FBS, 15.4 µM
[11] = HPLM + 10% dialyzed FBS, 46.1 µM
[12] = RPMI 5 mM glucose + 10% FBS, 0.000781 µM
[13] = RPMI 5 mM glucose + 10% FBS, 0.00234 µM
[14] = RPMI 5 mM glucose + 10% FBS, 0.00702 µM
[15] = RPMI 5 mM glucose + 10% FBS, 0.0211 µM
[16] = RPMI 5 mM glucose + 10% FBS, 0.0632 µM
[17] = RPMI 5 mM glucose + 10% FBS, 0.19 µM
[18] = RPMI 5 mM glucose + 10% FBS, 0.569 µM
[19] = RPMI 5 mM glucose + 10% FBS, 1.71 µM
[20] = RPMI 5 mM glucose + 10% FBS, 5.12 µM
[21] = RPMI 5 mM glucose + 10% FBS, 15.4 µM
[22] = RPMI 5 mM glucose + 10% FBS, 46.1 µM
[23] = RPMI 5 mM glucose + 10% dialyzed FBS, 0.000781 µM
[24] = RPMI 5 mM glucose + 10% dialyzed FBS, 0.00234 µM
[25] = RPMI 5 mM glucose + 10% dialyzed FBS, 0.00702 µM
[26] = RPMI 5 mM glucose + 10% dialyzed FBS, 0.0211 µM
[27] = RPMI 5 mM glucose + 10% dialyzed FBS, 0.0632 µM
[28] = RPMI 5 mM glucose + 10% dialyzed FBS, 0.19 µM
[29] = RPMI 5 mM glucose + 10% dialyzed FBS, 0.569 µM
[30] = RPMI 5 mM glucose + 10% dialyzed FBS, 1.71 µM
[31] = RPMI 5 mM glucose + 10% dialyzed FBS, 5.12 µM
[32] = RPMI 5 mM glucose + 10% dialyzed FBS, 15.4 µM
[33] = RPMI 5 mM glucose + 10% dialyzed FBS, 46.1 µM

SMILES	cell viability [1] [%]	cell viability [2] [%]	cell viability [3] [%]	cell viability [4] [%]	cell viability [5] [%]	cell viability [6] [%]	cell viability [7] [%]	cell viability [8] [%]	cell viability [9] [%]	cell viability [10] [%]	cell viability [11] [%]	cell viability [12] [%]	cell viability [13] [%]	cell viability [14] [%]	cell viability [15] [%]	cell viability [16] [%]	cell viability [17] [%]	cell viability [18] [%]	cell viability [19] [%]	cell viability [20] [%]	cell viability [21] [%]	cell viability [22] [%]	cell viability [23] [%]	cell viability [24] [%]	cell viability [25] [%]	cell viability [26] [%]	cell viability [27] [%]	cell viability [28] [%]	cell viability [29] [%]	cell viability [30] [%]	cell viability [31] [%]	cell viability [32] [%]	cell viability [33] [%]
CCCCn1c(=O)n(Cc2ccccc2F)c(=O)c2nc(Cc3ccc(NC(C)=O)cc3)[nH]c21	97.6	155	75.7	24.9	52.4	77.6	86	76.5	78.6	68.6	71.2	82.3	82.9	78.1	79.5	82.5	77.8	83.9	82.4	79.5	86.7	76.9	107	108	106	104	125	59.5	57.7	89.6	69.4	63.8	68.8
COc1cccc2cc(-c3nc(C4CCC(C(=O)O)CC4)n4ncnc(N)c34)[nH]c12 (stereo unspecified)	116	124	102	119	99.8	94.7	68.2	38.7	34.8	37.3	47.1	109	113	107	106	105	105	98.4	55.3	30	26.3	19.9	105	104	108	115	102	105	88.1	53.6	41.7	26.9	27.8
O=C(NCC[S+](=O)([O-])c1ccc(C(F)(F)F)cn1)c1ccc(Cl)cc1	127	117	119	117	119	120	132	117	105	122	106	122	144	116	134	135	127	123	118	130	128	110											
COC1=CC2=NC=CC(=C2C=C1)OC3=CN=C(NC(=O)C/4=C(C)/N(CC(C)(C)O)N(C4=O)C5=CC=CC=C5)C=C3	82	87.4	86.3	101	103	107	98.9	96.4	69.1	88	62.1	78.8	92	88.6	95	91.7	91.7	91.2	98.7	85.6	93.4	81.8	73.7	86.8	91.6	88.2	97.7	83.1	96.6	84.8	77.2	94.1	64
CN(C)c1ccc(O)c2c1C[C@H]1C[C@H]3[C@H](N(C)C)C(O)=C(C(N)=O)C(=O)[C@@]3(O)C(O)=C1C2=O	103	105	105	118	117	125	99.8	111	101	100	113	103	98	109	98.1	114	122	107	109	101	98.5	107	96	93.6	101	88.7	95.3	96	92.8	102	97.3	98.9	113
CC\1=C/C=C\C=[N]1[Pt](N)(Cl)Cl	118	105	111	110	108	130	131	98.8	106	129	108	96.4	95.6	93.4	103	99.6	113	106	88.7	106	110	93.3	107	90.8	96.6	95.3	96.4	111	97.3	104	107	109	96.3
CC(N[C@H]1C[C@@H]1c1ccccc1)c1ccc2c(c1)OCCO2 (stereo partly specified)												105	117	116	106	103	102	113	112	114	98.7	109	115	124	115	126	119	114	126	123	110	118	111
CC1(C)O[C@@H]2C[C@H]3[C@@H]4CCC5=CC(=O)C=C[C@]5(C)[C@@]4(F)[C@@H](O)C[C@]3(C)[C@]2(C(=O)CO)O1	110	119	112	111	117	108	90.6	105	86.3	48.4	25.8	98.3	112	96.1	111	115	121	117	109	97.7	33.2	18.1	106	112	111	127	122	117	113	110	99.8	105	32.2
CC/C(=C(/c1ccc(O)cc1)c1ccc(OCCNC)cc1)c1ccccc1	99.4	98.4	98	103	106	130	113	123	90.8	75.9	47.1	102	97.2	120	108	114	97.9	117	122	108	100	45.8	103	99.7	102	115	101	106	111	104	96.2	84.3	55.6
OC1=C(O)C2=C(\C=C/C(=O)O2)C=C1	102	111	109	116	113	108	103	109	111	115	128	99.7	105	105	116	106	96.5	97.3	110	97.1	107	99.4	105	102	108	107	99.8	127	111	101	107	110	112
CNC1CCC(N(Cc2cccc(-c3ccncc3)c2)C(=O)c2sc3ccccc3c2Cl)CC1 (stereo unspecified)	74.1	92.9	104	113	107	99	101	36.1	6.61	7.33	1.5	90.8	85.3	85.5	93	86	90.6	92.4	87.7	11.3	5.87	1.62	79.3	88.3	93.2	87	84.7	97.8	95.9	102	55	60.4	1.53
C\C1=C\C(=O)OC2=C1C=CC(=C2)O	119	129	122	133	120	130	120	118	113	110	104	116	122	117	111	119	122	105	120	117	123	106	117	118	120	118	110	108	104	102	109	113	90.7
CC(=O)Oc1ccccc1C(=O)O	106	107	104	105	115	107	107	99.2	88	98.9	103	93.8	95.9	92.9	88.4	97.9	87.4	95.2	106	88.3	101	90.4	97.7	104	106	109	110	93.4	91.8	105	88.4	94.9	96.6
FC(F)(F)c1ccc(/C=C/c2nc(COc3ccc(CCCCn4ccnn4)cc3)co2)cc1	127	125	122	127	120	104	107	79.4	27.7	25.2	22.6	125	122	128	137	134	127	126	92.1	20.5	15.3	13.1	122	143	122	124	124	116	130	128	27.8	24.1	19.9
CCC1(C)CC(=O)NC1=O (stereo unspecified)	114	116	105	118	102	111	104	93.9	105	86.7	84.2	85.5	89.2	84.7	87.5	89.2	92.2	99.2	81.7	90.3	94.5	77.4	104	98.1	96.7	94.3	81.3	101	98.4	92.7	96.6	88.2	87.6
C[C@](O)(COc1ccc(C#N)cc1)C(=O)Nc1ccc(C#N)c(C(F)(F)F)c1	83.2	81.5	81.2	95.6	90.1	99.1	90.4	96	88.6	97	71.2	72.8	93.8	94.4	85.4	96.2	95.3	103	96.2	88.8	92.8	75.9	75.5	88.7	86.8	98.3	92.5	97.2	95.2	102	85.2	92.4	78.8
